Reference: article PMC3530466, “Recombinant Expression of Margatoxin and Agitoxin-2 in Pichia pastoris: An Efficient Method for Production of KV1.3 Channel Blockers” (PLoS ONE, 2012)
Bridge positions count the residues as written; N and C are the ends. Ends that are not written are not given here.

Legend:
KV1.3 = conditions: cited from earlier work; for potency of native toxin on KV1.3: native toxins, ref [31]; for block of KV1.3 channels: ref [22], [30], [31]
Description: Voltage-gated potassium (KV) channels are expressed in a wide range of cell types and tissues where they play key roles in physiological processes such as cell excitability, muscle contraction, and regulation of cardiac function. KV channels are composed of four α subunits that together form a functional channel. There are […] subfamilies of KV channels, with KV1.3 being one of eight subtypes in the KV1.x subfamily. […] We therefore measured the ability of rAgTx2 and rMgTx to block mouse KV1.3 (mKV1.3) and mouse KV1.1 (mKV1.1) channels stably expressed in L929 cells. […] The recombinant rAgTx2 and rMgTx inhibited mKV1.3 with simi ... || KV channels have diverse physiological functions; they play important roles in cell excitability, muscle contraction, regulation of neuronal and cardiac electrical functions, and propagation of action potentials. […] This has led to the hypothesis that compounds that selectively target KV1.3 channels could be used to treat autoimmune diseases. Consistent with this idea, ... || (+ 1 further places)

T lymphocytes = conditions: native toxins; ref [33], [34]; read-out: IC50 range previously described, T lymphocyte proliferation; cited from earlier work
Description: We next tested the ability of each recombinant peptides to block the proliferation of freshly-isolated human T lymphocytes, which are sensitive to KV1.3 channel blockers. […] These concentrations are within the range previously described for MgTx (∼5 nM) and AgTx2 (>5 nM), [34]. Thus the biological activities of rAgTx2 and rMgTx produced in P.pastoris are similar to the native toxins.

KV1.1 = conditions: ref [22], [30], [31]; cited from earlier work
Description: We therefore measured the ability of rAgTx2 and rMgTx to block mouse KV1.3 (mKV1.3) and mouse KV1.1 (mKV1.1) channels stably expressed in L929 cells. […] The recombinant rAgTx2 and rMgTx inhibited mKV1.3 with simi ...

human KV1.3 channel = conditions: by blocking the central ion-conducting pore; ref [21], [22], [43]; cited from earlier work
Description: Some α-KTxs are of significant interest because they potently block the human KV1.3 channel. […] However, despite their similar 3D fold and high sequence homology, the affinity of α-KTx toxins for KV1.3 varies over six orders of magnitude from picomolar to micromolar. Moreover, many of these toxins inhibit a number of different subtypes KV channels with high affinity, an undesirable attribute for peptides being considered for therapeutic use due to the ...

[1] = target: T1, mouse KV1.1 (mKV1.1) channels stably expressed in L929 cells (Mus musculus, UniProt P16388); test: Inhibition of mKV1.1 currents, whole-cell patch clamp; format: cell-based; conditions: room temperature, 200-ms pulses from -80 mV to 40 mV every 30 s, Hill fit to reduction of peak current at 40 mV, each data point mean of 3–5 determinations
T1 construct: expressed in transfected cells
Description: (§1) L929 mouse fibroblast cells stably expressing mouse KV1.1 or mouse KV1.3 channels were kind gifts from Dr. George Chandy (University of California, Irvine). The cells were maintained in DMEM medium (Invitrogen, Carlsbad, CA, USA) supplemented with 10 IU/ml penicillin, 0.1 mg/ml streptomycin, 2 mM L-glutamine, 10% heat-inactivated fetal bovine serum, and 0.5 mg/ml G418 (EMD Chemicals, Gibbstown, NJ, USA). Freshly prepared buffy coats were purchased from the Gulf Coast Regional Blood Center (Houston, TX, USA) under a Baylor College of Medicine Institutional Review Board-approved protocol. Mononuclear cells were isolated from the buffy coats using Histopaque-1077 gradients (Sigma, St Louis, MI, USA) and used immediately or stored frozen in liquid nitrogen.
(§2) Experiments were conducted at room temperature using the whole-cell patch-clamp technique, as described previously. […] The bath solution contained (in mM): 160 NaCl, 4.5 KCl, 2 CaCl2, 1 MgCl2, 10 HEPES, pH 7.2, 300 mOsm. KV channel currents were elicited every 30 s by 200-ms depolarizing pulses from a holding potential of –80 mV to 40 mV. K d values and Hill coefficients were determined by fitting the Hill equation to the reduction of peak current measured at 40 mV.

[2] = target: T2, mouse KV1.3 (mKV1.3) channels stably expressed in L929 cells (Mus musculus, UniProt P16390); test: Inhibition of mKV1.3 currents, whole-cell patch clamp; format: cell-based; conditions: room temperature, each data point mean of 3–5 determinations
T2 construct: expressed in transfected cells
Description: as §1, §2

human T lymphocytes = test: Proliferation of T lymphocytes, [3H] thymidine incorporation; format: cell-based; conditions: freshly-isolated human T lymphocytes, 60 ng/ml anti-CD3 antibody (OKT3), pre-incubated 45 min at 37°C, cultured 72 h, [3H] thymidine last 16–18 h; three independent experiments with cells from different donors
Description: as §1
Mononuclear cells (10^6/ml) were plated into 96-well microplates and pre-incubated with peptidic KV1.3 blockers for 45 min at 37°C in RPMI medium (Invitrogen) supplemented with 100 IU/ml penicillin, 0.1 mg/ml streptomycin, 2 mM L-glutamine, 1 mM sodium pyruvate, 1% non-essential amino acids, 1% RPMI vitamins, […] β-mercaptoethanol, and 1% heat-inactivated fetal bovine serum. […] [^3H] thymidine incorporation into the DNA of proliferating cells was measured using a β-scintillation counter (Beckman Coulter, Brea, CA, USA).

[3] = test system: acid sensing ion channel 1a; conditions: ref [49]; cited from earlier work
Description: Recombinant production is the most cost-effective method for producing disulfide-rich peptides. The most common host for heterologous expression of venom peptides is E. coli, [47] but this often necessitates oxidative refolding of the peptides as the redox environment of the E. coli cytoplasm is not favorable for disulfide-bond formation. Higher yields of correctly folded toxin can often be obtained by exporting the peptides into periplasm of E. coli, where the cellular machinery for disulfide-bond formation is located [17]–[19]; however, the overall yield of recombi ...

[4] = 200-ms pulses from -80 mV to 40 mV every 30 s, Hill fit to reduction of peak current at 40 mV

T2 sequence (P16390 whole entry): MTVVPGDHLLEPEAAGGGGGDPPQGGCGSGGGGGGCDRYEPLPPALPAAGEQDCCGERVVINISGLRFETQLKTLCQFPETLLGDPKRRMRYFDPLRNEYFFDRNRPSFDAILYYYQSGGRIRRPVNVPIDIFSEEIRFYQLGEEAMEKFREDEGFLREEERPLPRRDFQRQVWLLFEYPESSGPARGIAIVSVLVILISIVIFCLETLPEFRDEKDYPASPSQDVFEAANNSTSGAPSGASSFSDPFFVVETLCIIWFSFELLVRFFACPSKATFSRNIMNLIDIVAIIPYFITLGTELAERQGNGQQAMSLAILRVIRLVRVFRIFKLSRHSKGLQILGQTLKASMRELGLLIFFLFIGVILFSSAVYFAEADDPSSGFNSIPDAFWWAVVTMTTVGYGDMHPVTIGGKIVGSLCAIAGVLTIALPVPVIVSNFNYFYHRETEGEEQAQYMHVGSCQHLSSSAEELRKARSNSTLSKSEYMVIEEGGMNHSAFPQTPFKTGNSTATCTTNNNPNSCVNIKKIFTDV
T1 sequence (P16388 whole entry): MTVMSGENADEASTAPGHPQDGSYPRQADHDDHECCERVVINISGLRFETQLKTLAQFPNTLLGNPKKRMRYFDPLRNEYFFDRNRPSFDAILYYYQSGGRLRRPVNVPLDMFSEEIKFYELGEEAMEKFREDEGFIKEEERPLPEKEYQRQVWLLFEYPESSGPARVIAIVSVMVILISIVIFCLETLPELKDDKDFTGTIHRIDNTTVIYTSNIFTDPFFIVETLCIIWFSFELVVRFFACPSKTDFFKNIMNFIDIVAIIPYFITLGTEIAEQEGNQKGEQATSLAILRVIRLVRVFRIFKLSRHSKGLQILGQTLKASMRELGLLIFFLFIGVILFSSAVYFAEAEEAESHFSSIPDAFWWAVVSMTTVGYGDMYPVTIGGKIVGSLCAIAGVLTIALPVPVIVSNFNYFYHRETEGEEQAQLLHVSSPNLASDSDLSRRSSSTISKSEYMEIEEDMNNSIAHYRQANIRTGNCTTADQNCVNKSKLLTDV

margatoxin (TIINVKCTSPKQCLPPCKAQFGQSAGAKCMNGKCKCYPH; UniProt P40755 1-39, looked up) [MgTx]
potency of native toxin on KV1.3 (KV1.3): 30−100 pM | block of KV1.3 channels (KV1.3): picomolar concentrations | IC50 (T lymphocytes): ~5 nM | block of KV1.1 channels (KV1.1): picomolar concentrations | inhibition of KV1.3 (human KV1.3 channel): potently inhibit KV1.3

CC[C@H](C)[C@@H]1NC(=O)[C@@H]2CSSC[C@@H]3NC(=O)[C@H](CCCCN)NC(=O)[C@H](CCCNC(=N)N)NC(=O)[C@H](CC(N)=O)NC(=O)[C@H](CCSC)NC(=O)[C@H](CSSC[C@H](NC(=O)[C@H](CO)NC(=O)[C@@H](NC(=O)[C@H](CC(N)=O)NC(=O)[C@@H](NC(=O)[C@@H]4CCCN4C(=O)[C@@H](NC(=O)CNC(=O)[C@H](Cc4c[nH]cn4)NC(=O)[C@H](Cc4c[nH]cn4)NC(=O)[C@H](Cc4c[nH]cn4)NC(=O)[C@H](Cc4c[nH]cn4)NC(=O)[C@H](Cc4c[nH]cn4)NC(=O)[C@H](Cc4c[nH]cn4)NC(=O)[C@H](Cc4ccccc4)NC(=O)[C@@H](N)CCC(=O)O)C(C)C)[C@@H](C)CC)C(C)C)C(=O)N[C@@H]([C@@H](C)O)C(=O)NCC(=O)N[C@@H](CO)C(=O)N4CCC[C@H]4C(=O)N[C@@H](CCC(N)=O)C(=O)N2)NC(=O)[C@H](CCCCN)NC(=O)CNC(=O)[C@H](Cc2ccccc2)NC(=O)[C@H](CCCNC(=N)N)NC(=O)[C@H](CCSC)NC(=O)CNC(=O)[C@H](C)NC(=O)[C@H](CC(=O)O)NC(=O)[C@H](CCCCN)NC(=O)[C@H](CSSC[C@@H](C(=O)N[C@H](C(=O)N2CCC[C@H]2C(=O)N[C@@H](CCCCN)C(=O)O)[C@@H](C)O)NC(=O)[C@H](Cc2c[nH]cn2)NC3=O)NC(=O)[C@@H]2CCCN2C(=O)[C@H](CCCCN)NC1=O [rAgTx2, recombinant agitoxin-2]
IC50 [1]: 0.144 ± 0.03 nM | IC50 [2, 4]: 0.201 ± 0.039 nM | IC50 (human T lymphocytes): ~40 nM

EFHHHHHHTIINVKCTSPKQCLPPCKAQFGQSAGAACMNGKCKCYPH (disulfide 15-37, 21-42, 25-44) [rMgTx-K28A]
IC50 ([2]; K28A mutant, Hill fit to peak current at 40 mV): 216 ± 24 nM

BmKTX: native peptide, parent of ADWX-1 (VGINVKCKHSGQCLKPCKDAGMRFGKCINGKCDCTPK; ends and bridges not checked; cysteine pairing not given here; UniProt Q9NII7 23-59, looked up)
IC50 (KV1.3; ref [44]): 0.15 nM

EFHHHHHHTIINVKCTSPKQCLPPCKAQFGQSAGAKCMNGKCKCYPH (disulfide 15-37, 21-42, 25-44) [rMgTx, recombinant margatoxin]
IC50 [1]: 0.396 ± 0.041 nM | IC50 [2, 4]: 0.097 ± 0.003 nM | IC50 (human T lymphocytes): ~6 nM

agitoxin-2 [AgTx2]
potency of native toxin on KV1.3 (KV1.3): 200 pM | block of KV1.3 channels (KV1.3): picomolar concentrations | IC50 (T lymphocytes): > 5 nM | block of KV1.1 channels (KV1.1): picomolar concentrations | inhibition of KV1.3 (human KV1.3 channel): potently inhibit KV1.3

PcTx1 (EDCIPKWKGCVNRHGDCCEGLECWKRRRSFEVCVPKTPKT; ends and bridges not checked; cysteine pairing not given here; UniProt P60514 1-40, looked up)
block of acid sensing ion channel 1a [3]: potent blocker
